Results reported in patent publication US10195204B2, “Methods of treating hemoglobinopathies” (DUKE UNIVERSITY, priority 2011, dated 2019).

What was measured:
Type in all cases: cell-based, human
[1] = test system: SS RBC adhesion to HUVECs; test: Flow chamber adhesion of SS RBCs to non-activated HUVECs; details: for mean decrease in SS RBC adhesion after 30 min exposure: 30 min vs 1 min epinephrine
Experimental: Cells were then washed three times with 5 ml PBS with Ca^2+ and Mg^2+. Prior to adhesion assays, washed treated SS RBCs were labeled with PKH 26 red fluorescent cell linker kit (Sigma-Aldrich, St. Louis, Mo.), following the manufacturer's instructions. […] The flow chamber was mounted on the stage of an inverted phase contrast microscope (Diaphot, Nikon Inc., Melville, N.Y.) connected to a thermoplate (Tokai Hit Co., Ltd., Japan) set at 37° C. […] Before exposure to flow, a minimum of three fields at each of seven different locations along a line oriented normal to future flow were examined for the total number of fluorescent cells. Fluid flow (HBSS with Ca^2+, Mg^2+) was then started using a calibrated syringe pump. After exposure to flow, the fields were again examined and the number of adherent cells counted. The fraction of adherent cells was presented as (number of cells attached after exposure to flow)/(cells present per field before flow). The wall shear stress was calculated as: [formula] τw=wall shear stress (dyne/cm^2); Q=volumetric flow rate (cm^3/s); μ is media viscosity, w is the width of the flow channel, and H(x) is the height of the flow chamber as a function of position along the microscope slide. Several investigators have shown that blood flow in small vessels may be continuous, with shear stresses of 1-2 dynes/cm^2, or flow may be intermittent. Our data were obtained using both intermittent and continuous flow conditions.

[2] = test system: SS RBC membrane ghost phosphopeptides; test: Label-free quantitative phosphoproteomic analysis of SS RBC membrane ghosts
Experimental: Ghosted RBCs were spun at 14,000 rpm for 15 min at 4° C. to pellet membranes. Membrane pellets were washed with 1 mL 50 mM ammonium bicarbonate (pH 8.0) with vortexing and were then spun at 14,000 rpm for 30 min at 4° C. The supernatant was then removed and 500 μL of 50 mM ammonium bicarbonate with μL 0.2% acid-labile surfactant (ALS-1) in 50 mM ammonium bicarbonate (pH 8.0) was added. Samples were subjected to probe sonication three-times for 5 sec with cooling on ice between and insoluble material was cleared by centrifugation at 14,000 rpm for 30 mins at 4° C. Samples were normalized to approximately 2 μg/μl following a micro-Bradford assay (Pierce Bioscience), and were reduced with a final concentration of 10 mM dithiothreitol at 80° C. for 20 min. Samples were then alkylated with a final concentration of 20 mM iodoacetamide at room temperature for 45 min and trypsin was added to a final ratio of 1-to-50 (w/w) enzyme-to-protein and allowed to digest at 37° C. for 18 hr. To remove ALS-1, samples were acidified to pH 2.0 with neat TFA, incubated at 60° C. for 2 hrs and spun at 14,000 rpm to remove hydrolyzed ALS-1. Samples were either subjected directly to LC-MS analysis or subjected to a TiO2 based phosphopeptide enriched protocol.
To enrich for phosphorylated peptides prior to LC-MS analysis, either 1,125 μg and 970 μg of total digested protein from RBC ghosts co-incubated with recombinant active ERK2 experiments and experiments using epinephrine-treated cells, respectively, were brought to near dryness using vacuum centrifugation and then resuspended in 200 μL of 80% acetonitrile, 1% TFA, 50 mg/ml MassPrep Enhancer (pH 2.5) (Waters Corp. Milford, Mass.). Samples were loaded onto an in-house packed TiO2 spin column (Protea Biosciences) with a 562 μg or 485 μg binding capacity for active ERK2 treated or epinephrine treated experiments, respectively. Samples were washed twice with 200 μL 80% acetonitrile, 1% TFA, 50 mg/ml MassPrep Enhancer (pH 2.5) followed by two washes with 200 μL 80% acetonitrile, 1% TFA (pH 2.5). Retained peptides were eluted twice with 100 μL 20% acetonitrile, 5% aqueous ammonia (pH 10.0), acidified to pH 3 with neat formic acid and then brought to dryness using vacuum centrifugation. Prior to LC-MS analysis, each sample was resuspended in 20 μL 2% acetonitrile, 0.1% TFA, 25 mM citric acid (pH 2.5).
Chromatographic separation of phosphopeptide enriched or non-enriched samples was performed on a Waters NanoAquity UPLC equipped with a 1.7 μm BEH130 C1875 μm I.D.×250 mm reversed-phase column. The mobile phase consisted of (A) 0.1% formic acid in water and (B) 0.1% formic acid in acetonitrile. Five μL injections of each sample were trapped for 5 min on a 5 μm Symmetry C18 180 μm I.D.×20 mm column at 20 μl/min in 99.9% A. The analytical column was then switched in-line and the mobile phase was held for 5 min at 5% B before applying a linear elution gradient of 5% B to 40% B or 5% B to 30% B over 90 min at 300 nL/min for ERK2 treated experiments or epinephrine treated experiments, respectively. The analytical column was connected to fused silica PicoTip emitter (New Objective, Cambridge, Mass.) with a 10 μm tip orifice and coupled to the mass spectrometer through an electrospray interface.
MS data from each phosphopeptide enriched sample was acquired on a Thermo LTQ-Orbitrap XL mass spectrometer operating in positive-ion mode with an electrospray voltage of 2.0 kV with real-time lockmass correction on ambiant polycyclodimethylsiloxane (m/z 445.120025) enabled. The instrument was set to acquire a precursor MS scan from m/z 400-2000 with r=60,000 at m/z 400 and a target AGC setting of 1e6 ions. Each sample was analyzed four-times, one of which was used for additional qualitative identifications only and was not included in the quantitative analysis, with product ions above a threshold of 500 counts were acquired for the top 5 most intense ions in the linear ion trap. […]

[3] = test system: ICAM-4 (LW) phosphorylation; test: 32P labeling, ICAM-4 immunoprecipitation and detection of phosphorylation in SS RBCs
Experimental: Cells were then washed 4 times. ICAM-4 protein immunoprecipitation, and total and phospho-ICAM-4 detection were performed as previously described in detail.^4 To further confirm that the immunoprecipitates were specific for ICAM-4, anti-ICAM-4 mAb and the negative control immunoglobulin P3 were used to immunoprecipitate ICAM-4 from non-radiolabeled SS RBCs incubated in the presence or absence of epinephrine. Blots were then immunostained with anti-ICAM-4 mAb.

[4] = shear stress 2 dynes/cm^2, intermittent flow
[5] = SS RBCs, epinephrine 30 min vs 1 min
[6] = SS RBCs vs SS RBCs treated with U0126

Structure (SMILES)	mean decrease in SS RBC adhesion after 30 min exposure ([1]; constant flow)	mean decrease in SS RBC adhesion after 30 min exposure ([1]; intermittent flow)	effect on SS RBC adhesion to HUVECs [1, 4]	change in phosphorylation of serine 310 within CAP1 [2, 5]	change in phosphorylation of threonine 307 within CAP1 [2, 5]	ICAM-4 phosphorylation over sham-treated cells ([3]; epinephrine 1 min in the presence of SPI (FIG. 4F))	ICAM-4 phosphorylation vs 1 min exposure ([3]; epinephrine 30 min in the presence of SPI)	increase in ICAM-4 phosphorylation over sham-treated SS RBCs ([3]; epinephrine in the presence of SPI)	inhibition of SS RBC adhesion to non-activated HUVECs vs sham-treated SS RBCs ([1]; U0126 alone)	inhibition of forskolin-increased SS RBC adhesion to HUVECs ([1]; shear stress 2 dynes/cm^2, compared to forskolin alone)	effect on epinephrine-induced SS RBC adhesion to HUVECs [1, 4]	change of Ser540/Ser542 doubly phosphorylated peptide within protein 4.1 ([2]; SS RBCs treated with U0126)	unique RBC membrane phosphopeptides significantly down-regulated [2, 6]	unique phosphoproteins carrying the down-regulated phosphopeptides [2, 6]	effect on combined effect of epinephrine and SPI on ICAM-4 phosphorylation ([3]; SS RBCs preincubated with inhibitor)
CNC[C@H](O)c1ccc(O)c(O)c1 [epinephrine]	73±4.7%	56±1.5%	significantly up-regulated	−4.3 fold	−1.4 fold	1.84±0.15 fold	significantly diminished	7.4±1.07 fold							
N#CC(=C(/N)Sc1ccccc1N)/C(C#N)=C(\N)Sc1ccccc1N [U0126]									91±4.6%	83±4%	completely inhibited	−1.7 fold	36	22	significantly decreased
